Laboratory results from PMC9728158, “Two Flavonoid-Based Compounds from Murraya paniculata as Novel Human Carbonic Anhydrase Isozyme II Inhibitors Detected by a Resazurin Yeast-Based Assay” (Journal of Microbiology and Biotechnology, 2019).

Molecular target: T1, human carbonic anhydrase isozyme II (hCAII) (Homo sapiens, UniProt P00918)
T1 construct: gene CA2
Test: in vitro esterase assay (4-NPA hydrolysis, […] nm); also yeast-based hCAII assay
Assay type: biochemical

| IC50 [µM] | Compound |
| --- | --- |
| 24 | COc1cc(-c2cc(=O)c3c(OC)c(OC)c(OC)c(OC)c3o2)cc(OC)c1OC [compound 4, 5,6,7,8,3′,4′,5′-heptamethoxyflavone] |
| 34.3 | COc1cc(-c2oc3c(OC)c(OC)cc(OC)c3c(=O)c2OC)cc(OC)c1OC [compound 9, 3,5,7,8,3′,4′,5′-Heptamethoxyflavone] |
